Measured values taken from US6740335B1, “Liposomal camptothecin formulations” (priority 1997, dated 2004).

Columns and labels:
A673 (Rhabdomyosarcoma) = test: 3H-thymidine incorporation cytotoxicity assay, A673; type: cell-based, human; conditions: A673, 24 h
Method: (§1) In vitro efficacy screening has been performed using GI147211 and liposomal formulations of GI147211. […] Standard tumor cell-based cytototoxicity assays assessing ^3H-thymidine incorporation were performed.
(§2) Tumor cells were seeded into 96-well tissue culture plates (1×10^4 cells/well)≡4 h prior to experimentation. […] Positive and negative (Tris treated) control groups were included on each assay plate. Tumor cells were then labeled with 0.25 μCi of [methyl-^3H] thymidine and incubated for 42 h under tissue culture conditions (37° C., 5% CO2, 100% relative humidity), except for C6, U251, A673 and B16-F1 cells which were incubated for 24 h. Cells were then lysed, harvested onto glass-fiber filters and unincorporated [methyl-^3H] thymidine removed by filter washing. Filters were processed for scintillation counting and cpm-^3H/well determined. […] Data are presented from multiple sets of experimentation, involving multiple liposomal formulations of GI147211.

[1] = tested on: B16-F1 (Melanoma, murine); test: 3H-thymidine incorporation cytotoxicity assay, B16-F1; type: cell-based; conditions: B16-F1, 24 h
Method: as §1, §2

BT-20 (Breast) = test: 3H-thymidine incorporation cytotoxicity assay, BT-20; type: cell-based, human; conditions: BT-20, 42 h
Method: as §1, §2

[2] = tested on: DU-145 (prostate carcinoma); test: 3H-thymidine incorporation cytotoxicity assay, DU-145; type: cell-based, human; conditions: DU-145, 42 h
Method: as §1, §2

ES-2 (ovarian carcinoma) = test: 3H-thymidine incorporation cytotoxicity assay, ES-2; type: cell-based, human; conditions: ES-2, 42 h
Method: as §1, §2

[3] = tested on: H460 (Lung, Non-Small Cell); test: 3H-thymidine incorporation cytotoxicity assay, H460; type: cell-based, human; conditions: H460, 42 h
Method: as §1, §2

HT-29 (Colon) = test: 3H-thymidine incorporation cytotoxicity assay, HT-29; type: cell-based, human; conditions: HT-29, 42 h
Method: as §1, §2

[4] = tested on: KB (oralpharyngial carcinoma); test: 3H-thymidine incorporation cytotoxicity assay, KB; type: cell-based, human; conditions: 42 h
Method: as §1, §2

[5] = tested on: KBV (oralpharyngial carcinoma, vincristine resistant phenotype); test: 3H-thymidine incorporation cytotoxicity assay, KBV; type: cell-based, human; conditions: 42 h
Method: as §1, §2

LOX (melanoma) = test: 3H-thymidine incorporation cytotoxicity assay, LOX; type: cell-based, human; conditions: 42 h
Method: as §1, §2

LS-513 (Cecum) = test: 3H-thymidine incorporation cytotoxicity assay, LS-513; type: cell-based, human; conditions: LS-513, 42 h
Method: as §1, §2

MCF-7 (Breast) = test: 3H-thymidine incorporation cytotoxicity assay, MCF-7; type: cell-based, human; conditions: MCF-7, 42 h
Method: as §1, §2

MDA-MB-468 (Breast) = test: 3H-thymidine incorporation cytotoxicity assay, MDA-MB-468; type: cell-based, human; conditions: MDA-MB-468, 42 h
Method: as §1, §2

[6] = tested on: SKOV-3 (ovarian carcinoma); test: 3H-thymidine incorporation cytotoxicity assay, SKOV-3; type: cell-based, human; conditions: SKOV-3, 42 h
Method: as §1, §2

U251 (Glioblastoma) = test: 3H-thymidine incorporation cytotoxicity assay, U251; type: cell-based, human; conditions: U251, 24 h
Method: as §1, §2

U87-MG (Astrocytoma) = test: 3H-thymidine incorporation cytotoxicity assay, U87-MG; type: cell-based, human; conditions: 42 h
Method: as §1, §2

U937 (Lymphoma) = test: 3H-thymidine incorporation cytotoxicity assay, U937; type: cell-based, human; conditions: U937, 42 h
Method: as §1, §2

ES2 Tumor Xenograft = test: Repeat dose efficacy at equal toxic doses, ES2 xenograft; conditions: ES2, 16 mg/kg, days 1, 8 and 15
Method: In all the studies performed, subcutaneous tumors implanted on the anterior flank of nude mice were allowed to grow to an established size of 200+/−50 mm^3 prior to dosing drugs.
Drugs were dosed on days 1,8 and 15.

CC[C@@]1(O)C(=O)OCc2c1cc1n(c2=O)Cc2cc3c(CN(C)C)c(O)ccc3nc2-1 [Topotecan]
Median IC50 (A673 (Rhabdomyosarcoma)): 0.00604 µg/mL
Median IC50 [1]: 0.393 µg/mL
Median IC50 (BT-20 (Breast)): 0.0035 µg/mL
Median IC50 [2]: 0.0135 µg/mL
Median IC50 (ES-2 (ovarian carcinoma)): 0.00389 µg/mL
Median IC50 [3]: 0.0209 µg/mL
Median IC50 (HT-29 (Colon)): 0.00415 µg/mL
Median IC50 [4]: 0.0336 µg/mL
Median IC50 [5]: 0.611 µg/mL
Median IC50 (LOX (melanoma)): 0.00492 µg/mL
Median IC50 (LS-513 (Cecum)): 0.016 µg/mL
Median IC50 (MCF-7 (Breast)): 0.23 µg/mL
Median IC50 (MDA-MB-468 (Breast)): 0.0473 µg/mL
Median IC50 [6]: 0.00518 µg/mL
Median IC50 (U251 (Glioblastoma)): 0.0131 µg/mL
Median IC50 (U87-MG (Astrocytoma)): 0.0216 µg/mL
Median IC50 (U937 (Lymphoma)): 0.00903 µg/mL
Cures (ES2 Tumor Xenograft): 0
Log Cell Kill (ES2 Tumor Xenograft): 0.58
Maximum Body Weight loss (ES2 Tumor Xenograft): 16%
T − C (to reach 400% tumor volume increase) (ES2 Tumor Xenograft): 7.4 days
Toxic Deaths (ES2 Tumor Xenograft): 3
